# Test results from patent US6894046B2, “IL-5 inhibiting 6-azauracil derivatives” (Janssen Pharmaceutica N.V., priority 1998, dated 2005).
# System: IL-5 production in human blood
# Assay: In vitro inhibition of IL-5 production in human blood (phytohemagglutinin-stimulated whole blood, ELISA)
# Assay type: cell-based
# Details: test dose 1×10^−6 M, phytohemagglutinin 2 μg/ml, 48 hours
row,SMILES,% inh. (percentage inhibition of IL-5 production) [%]
1,CC(C)(c1nc(-c2cccnc2)cs1)c1c(Cl)cc(-n2ncc(=O)[nH]c2=O)cc1Cl [Compound 82],85
2,CC(C)(c1nc(-c2cccs2)c(CC(=O)O)s1)c1c(Cl)cc(-n2ncc(=O)[nH]c2=O)cc1Cl [Compound 121],−3
3,CC(C)(c1nc(-c2ccccc2F)cs1)c1c(Cl)cc(-n2ncc(=O)[nH]c2=O)cc1Cl [Compound 11],88

# Same assay, conditions: test dose 1×10^−6 M, phytohemagglutinin 2 μg/ml, 48 hours, read-out: % inh. (percentage inhibition of IL-5 production)
row,SMILES,inhibition at 1 µM [%]
1,"CC(C)(c1nc(-c2ccccc2Cl)c(-c2cccc(CO)c2)s1)c1c(Cl)cc(-n2ncc(=O)[nH]c2=O)cc1Cl [Compound 59, 2-[3,5-dichloro-4-[1-[4-(2-chlorophenyl)-5-[3-(hydroxymethyl)phenyl]-2-thiazolyl]-1-methylethyl]phenyl]-1,2,4-triazine-3,5(2H,4H)-dione]",82
2,"CC(C)(c1nc(-c2ccccc2)c(-c2cccc(O)c2)s1)c1c(Cl)cc(-n2ncc(=O)[nH]c2=O)cc1Cl [Compound 58, 2-[3,5-dichloro-4-[1-[5-(3-hydroxyphenyl)4-phenyl-2-thiazolyl]-1-methyl-ethyl]phenyl]-1,2,4-triazine-3,5(2H,4H)-dione]",84
3,"Cc1ccccc1-c1nc(C(C)(C)c2c(Cl)cc(-n3ncc(=O)[nH]c3=O)cc2Cl)no1 [Compound 87, 2-[3,5-dichloro-4-[1-methyl-1-[5-(2-methylphenyl)-1,2,4-oxadiazol-3-yl]ethyl]phenyl]-1,2,4-triazine-3,5(2H,4H)-dione]",89
